“And” between values parts separate entries of the source, which are not always exact repeats. Identical values can stand only once.
Experiments:
[1] = biological target: T1, AChE (Cavia porcellus, UniProt D3YE96); type: biochemical, Hartley guinea pig
[2] = biological target: T2, BChE (Cavia porcellus, UniProt H0V4F8); type: biochemical, Hartley guinea pig
[3] = biological target: T1, AChE; conditions: guinea pig, in vivo
[4] = biological target: AChE (Homo sapiens, UniProt P22303); type: biochemical
[5] = biological target: BChE (Homo sapiens, UniProt P06276); type: biochemical
[6] = biological target: AChE (Macaca mulatta, UniProt A0A5F7ZPE9); type: biochemical, Rhesus monkey
[7] = tested on: BChE; type: biochemical, Rhesus monkey
[8] = biological target: AChE (Rattus norvegicus, UniProt P37136); type: biochemical, Sprague Dawley rat
[9] = biological target: BChE (Rattus norvegicus, UniProt Q9JKC1); type: biochemical, Sprague Dawley rat
[10] = biological target: T2, BChE; type: biochemical, Hartley guinea pig; remark: listed apart in the source
[11] = biological target: T1, AChE; type: biochemical, Hartley guinea pig; remark: listed apart in the source

Row | Compound | AChE Coefficient (sensitivity coefficient) Value [4] | BChE Coefficient (sensitivity coefficient) Value [5] | AChE Coefficient (sensitivity coefficient) Value [6] | BChE Coefficient (sensitivity coefficient) Value [7] | AChE Coefficient (sensitivity coefficient) Value [8] | BChE Coefficient (sensitivity coefficient) Value [9] | other results
1 | C[n+]1ccccc1C=NO [2-PAM] | – | – | – | – | – | – | effect on AChE [1]: inhibited; effect on BChE [2]: relatively unaffected
2 | CN(C)C(=O)Oc1ccc[n+](C)c1 [PB, pyridostigmine bromide] | – | – | – | – | – | – | peak inhibition time [3]: about 30 minutes
3 | CCC(=O)SCC[N+](C)(C)C.[I-] [PTC, propionylthiocholine iodide] | 1071 mAbs/min/[blood] | 1417 mAbs/min/[blood] | 844 mAbs/min/[blood] | 514 mAbs/min/[blood] | 158 mAbs/min/[blood] | 134 mAbs/min/[blood] | –
4 | C/C=C1\[C@H]2C=C(C)C[C@]1(N)c1ccc(=O)[nH]c1C2 (racemic) [rac Hup-A, Racemic huperzine-A] | – | – | – | – | – | – | BChE Average [10]: 0.907 U/mL and 0.930 U/mL and 0.913 U/mL and 0.929 U/mL and 0.912 U/mL and 0.892 U/mL
5 | CCCC(=O)SCC[N+](C)(C)C.[I-] [BTC, butyrylthiocholine iodide] | 82 mAbs/min/[blood] | 1466 mAbs/min/[blood] | 0 mAbs/min/[blood] | 661 mAbs/min/[blood] | 0 mAbs/min/[blood] | 62 mAbs/min/[blood] | AChE Coefficient (sensitivity coefficient) Value [11]: 0 mAbs/min/[blood]
